Measurements from ChEMBL document CHEMBL4002545, “Design, synthesis and antimicrobial evaluation of novel benzoxazole derivatives” (2017).
≈ marks a conversion by molar mass, not a printed value.

tested on: Bacillus subtilis; experiment: Potency index, ratio of Cefradine MIC to compound MIC for anti-bacterial activity against Bacillus subtilis ATCC 33712; conditions: not given

Compound	Ratio MIC
CC(C)c1ccc(CCc2nc3cc(C[C@H](Oc4ccc(C(C)(C)C)cc4)C(=O)O)ccc3o2)cc1	8 - 510

tested on: Staphylococcus aureus; experiment: Anti-bacterial activity against methicillin-resistant Staphylococcus aureus ATCC 700699 measured after 24 hrs by microtiter broth dilution method; type: functional; conditions: Mu50, 24 h

Compound	MIC [µg/mL]
Cc1oc(-c2ccccc2)nc1CCCc1nc2cc(C[C@H](Oc3ccc(C(C)(C)C)cc3)C(=O)O)ccc2o1	1.56 (≈ 2.9 µM)
CC(C)(C)c1ccc(O[C@@H](Cc2ccc3oc(CCc4cn5cc(C(F)(F)F)ccc5n4)nc3c2)C(=O)O)cc1	25 (≈ 45.3 µM)
CCCCCCCc1nc2cc(C[C@H](Oc3ccc(C(C)(C)C)cc3)C(=O)O)ccc2o1	1.56 (≈ 3.57 µM)
Cc1oc(-c2ccccc2)nc1CCc1nc2cc(C[C@H](Oc3ccc(C(C)(C)C)cc3)C(=O)O)ccc2o1	0.78 (≈ 1.49 µM)
CC(C)c1ccc(CCc2nc3cc(C[C@H](Oc4ccc(C(C)(C)C)cc4)C(=O)O)ccc3o2)cc1	0.195 (≈ 0.402 µM)
CC(C)(C)c1ccc(O[C@@H](Cc2ccc3oc(CCc4ncco4)nc3c2)C(=O)O)cc1	200 (≈ 460 µM)
COc1cc(CCc2nc3cc(C[C@H](Oc4ccc(C(C)(C)C)cc4)C(=O)O)ccc3o2)cc(OC)c1OC	100 (≈ 187 µM)
CC(C)(C)c1ccc(O[C@@H](Cc2ccc3oc(CCc4ccccc4)nc3c2)C(=O)O)cc1	1.56 (≈ 3.52 µM)
CC(C)(C)c1ccc(O[C@@H](Cc2ccc3oc(CCc4cc5ccccc5o4)nc3c2)C(=O)O)cc1	0.78 (≈ 1.61 µM)
CC(C)(C)c1ccc(O[C@@H](Cc2ccc3oc(CCc4ccc(F)cc4)nc3c2)C(=O)O)cc1	1.56 (≈ 3.38 µM)
CO/N=C(\C(=O)N[C@@H]1C(=O)N2C(C(=O)O)=C(COC(C)=O)CS[C@H]12)c1csc(N)n1 [CEFOTAXIME]	3.12 (≈ 6.85 µM)
CC(C)(O/N=C(\C(=O)N[C@@H]1C(=O)N2C(C(=O)[O-])=C(C[n+]3ccccc3)CS[C@H]12)c1csc(N)n1)C(=O)O [CEFTAZIDIME]	12.5 (≈ 22.9 µM)
CC1=C(C(=O)O)N2C(=O)[C@@H](NC(=O)[C@H](N)C3=CCC=CC3)[C@H]2SC1 [CEPHRADINE]	50 (≈ 143 µM)
CC1(C)S[C@@H]2[C@H](NC(=O)Cc3ccccc3)C(=O)N2[C@H]1C(=O)[O-].[Na+] [PENICILLIN G SODIUM]	3.12

tested on: Staphylococcus aureus; experiment: Anti-bacterial activity against Staphylococcus aureus ATCC 10832 measured after 24 hrs by microtiter broth dilution method; type: functional; conditions: ATCC 10832, 24 h

Compound	MIC [µg/mL]
Cc1oc(-c2ccccc2)nc1CCCc1nc2cc(C[C@H](Oc3ccc(C(C)(C)C)cc3)C(=O)O)ccc2o1	1.56 (≈ 2.9 µM)
CC(C)(C)c1ccc(O[C@@H](Cc2ccc3oc(CCc4cn5cc(C(F)(F)F)ccc5n4)nc3c2)C(=O)O)cc1	50 (≈ 90.7 µM)
CCCCCCCc1nc2cc(C[C@H](Oc3ccc(C(C)(C)C)cc3)C(=O)O)ccc2o1	0.78 (≈ 1.78 µM)
Cc1oc(-c2ccccc2)nc1CCc1nc2cc(C[C@H](Oc3ccc(C(C)(C)C)cc3)C(=O)O)ccc2o1	1.56 (≈ 2.97 µM)
CC(C)c1ccc(CCc2nc3cc(C[C@H](Oc4ccc(C(C)(C)C)cc4)C(=O)O)ccc3o2)cc1	0.39 (≈ 0.803 µM)
CC(C)(C)c1ccc(O[C@@H](Cc2ccc3oc(CCc4ncco4)nc3c2)C(=O)O)cc1	> 200
COc1cc(CCc2nc3cc(C[C@H](Oc4ccc(C(C)(C)C)cc4)C(=O)O)ccc3o2)cc(OC)c1OC	100 (≈ 187 µM)
CC(C)(C)c1ccc(O[C@@H](Cc2ccc3oc(CCc4ccccc4)nc3c2)C(=O)O)cc1	1.56 (≈ 3.52 µM)
CC(C)(C)c1ccc(O[C@@H](Cc2ccc3oc(CCc4cc5ccccc5o4)nc3c2)C(=O)O)cc1	0.78 (≈ 1.61 µM)
CC(C)(C)c1ccc(O[C@@H](Cc2ccc3oc(CCc4ccc(F)cc4)nc3c2)C(=O)O)cc1	1.56 (≈ 3.38 µM)
CO/N=C(\C(=O)N[C@@H]1C(=O)N2C(C(=O)O)=C(COC(C)=O)CS[C@H]12)c1csc(N)n1 [CEFOTAXIME]	3.12 (≈ 6.85 µM)
CC(C)(O/N=C(\C(=O)N[C@@H]1C(=O)N2C(C(=O)[O-])=C(C[n+]3ccccc3)CS[C@H]12)c1csc(N)n1)C(=O)O [CEFTAZIDIME]	0.78 (≈ 1.43 µM)
CC1=C(C(=O)O)N2C(=O)[C@@H](NC(=O)[C@H](N)C3=CCC=CC3)[C@H]2SC1 [CEPHRADINE]	25 (≈ 71.5 µM)
CC1(C)S[C@@H]2[C@H](NC(=O)Cc3ccccc3)C(=O)N2[C@H]1C(=O)[O-].[Na+] [PENICILLIN G SODIUM]	3.12

tested on: Bacillus subtilis; experiment: Potency index, ratio of sodium penicillin IC50 to compound IC50 for anti-bacterial activity against Bacillus subtilis ATCC 33712; type: functional; conditions: not given

Compound	Ratio IC50
CC(C)c1ccc(CCc2nc3cc(C[C@H](Oc4ccc(C(C)(C)C)cc4)C(=O)O)ccc3o2)cc1	2

tested on: Escherichia coli; experiment: Anti-bacterial activity against Escherichia coli ATCC 11303 measured after 24 hrs by microtiter broth dilution method; type: functional; conditions: ATCC 11303, 24 h

Compound	MIC [µg/mL]
Cc1oc(-c2ccccc2)nc1CCCc1nc2cc(C[C@H](Oc3ccc(C(C)(C)C)cc3)C(=O)O)ccc2o1	3.12 (≈ 5.79 µM)
CC(C)(C)c1ccc(O[C@@H](Cc2ccc3oc(CCc4cn5cc(C(F)(F)F)ccc5n4)nc3c2)C(=O)O)cc1	> 200
CCCCCCCc1nc2cc(C[C@H](Oc3ccc(C(C)(C)C)cc3)C(=O)O)ccc2o1	1.56 (≈ 3.57 µM)
Cc1oc(-c2ccccc2)nc1CCc1nc2cc(C[C@H](Oc3ccc(C(C)(C)C)cc3)C(=O)O)ccc2o1	1.56 (≈ 2.97 µM)
CC(C)c1ccc(CCc2nc3cc(C[C@H](Oc4ccc(C(C)(C)C)cc4)C(=O)O)ccc3o2)cc1	0.78 (≈ 1.61 µM)
CC(C)(C)c1ccc(O[C@@H](Cc2ccc3oc(CCc4ncco4)nc3c2)C(=O)O)cc1	> 200
CC(C)(C)c1ccc(O[C@@H](Cc2ccc3oc(CC4CCOCC4)nc3c2)C(=O)O)cc1	> 200
COc1cc(CCc2nc3cc(C[C@H](Oc4ccc(C(C)(C)C)cc4)C(=O)O)ccc3o2)cc(OC)c1OC	200 (≈ 375 µM)
CC(C)Cc1nc2cc(C[C@H](Oc3ccc(C(C)(C)C)cc3)C(=O)O)ccc2o1	3.12 (≈ 7.89 µM)
CC(C)(C)c1ccc(O[C@@H](Cc2ccc3oc(CCc4ccccc4)nc3c2)C(=O)O)cc1	3.12 (≈ 7.03 µM)
CC(C)(C)c1ccc(O[C@@H](Cc2ccc3oc(CCc4cc5ccccc5o4)nc3c2)C(=O)O)cc1	0.78 (≈ 1.61 µM)
CC(C)(C)c1ccc(O[C@@H](Cc2ccc3oc(CCc4ccc(F)cc4)nc3c2)C(=O)O)cc1	1.56 (≈ 3.38 µM)
CO/N=C(\C(=O)N[C@@H]1C(=O)N2C(C(=O)O)=C(COC(C)=O)CS[C@H]12)c1csc(N)n1 [CEFOTAXIME]	200 (≈ 439 µM)
CC(C)(O/N=C(\C(=O)N[C@@H]1C(=O)N2C(C(=O)[O-])=C(C[n+]3ccccc3)CS[C@H]12)c1csc(N)n1)C(=O)O [CEFTAZIDIME]	200 (≈ 366 µM)
CC1=C(C(=O)O)N2C(=O)[C@@H](NC(=O)[C@H](N)C3=CCC=CC3)[C@H]2SC1 [CEPHRADINE]	25 (≈ 71.5 µM)
CC1(C)S[C@@H]2[C@H](NC(=O)Cc3ccccc3)C(=O)N2[C@H]1C(=O)[O-].[Na+] [PENICILLIN G SODIUM]	0.78

tested on: Bacillus subtilis; experiment: Potency index, ratio of Cefotaxime IC50 to compound IC50 for anti-bacterial activity against Bacillus subtilis ATCC 33712; type: functional; conditions: not given

Compound	Ratio IC50
CC(C)c1ccc(CCc2nc3cc(C[C@H](Oc4ccc(C(C)(C)C)cc4)C(=O)O)ccc3o2)cc1	8 - 510

tested on: Bacillus subtilis; experiment: Anti-bacterial activity against Bacillus subtilis ATCC 33712 measured after 24 hrs by microtiter broth dilution method; type: functional; conditions: ATCC 33712, 24 h

Compound	MIC [µg/mL]
Cc1oc(-c2ccccc2)nc1CCCc1nc2cc(C[C@H](Oc3ccc(C(C)(C)C)cc3)C(=O)O)ccc2o1	3.12 (≈ 5.79 µM)
CC(C)(C)c1ccc(O[C@@H](Cc2ccc3oc(CCc4cn5cc(C(F)(F)F)ccc5n4)nc3c2)C(=O)O)cc1	50 (≈ 90.7 µM)
CCCCCCCc1nc2cc(C[C@H](Oc3ccc(C(C)(C)C)cc3)C(=O)O)ccc2o1	0.78 (≈ 1.78 µM)
Cc1oc(-c2ccccc2)nc1CCc1nc2cc(C[C@H](Oc3ccc(C(C)(C)C)cc3)C(=O)O)ccc2o1	0.78 (≈ 1.49 µM)
CC(C)c1ccc(CCc2nc3cc(C[C@H](Oc4ccc(C(C)(C)C)cc4)C(=O)O)ccc3o2)cc1	0.098 (≈ 0.202 µM)
CC(C)(C)c1ccc(O[C@@H](Cc2ccc3oc(CCc4ncco4)nc3c2)C(=O)O)cc1	200 (≈ 460 µM)
CC(C)(C)c1ccc(O[C@@H](Cc2ccc3oc(CC4CCOCC4)nc3c2)C(=O)O)cc1	200 (≈ 457 µM)
COc1cc(CCc2nc3cc(C[C@H](Oc4ccc(C(C)(C)C)cc4)C(=O)O)ccc3o2)cc(OC)c1OC	100 (≈ 187 µM)
CC(C)Cc1nc2cc(C[C@H](Oc3ccc(C(C)(C)C)cc3)C(=O)O)ccc2o1	1.56 (≈ 3.94 µM)
CC(C)(C)c1ccc(O[C@@H](Cc2ccc3oc(CCc4ccccc4)nc3c2)C(=O)O)cc1	0.39 (≈ 0.879 µM)
CC(C)(C)c1ccc(O[C@@H](Cc2ccc3oc(CCc4cc5ccccc5o4)nc3c2)C(=O)O)cc1	0.39 (≈ 0.807 µM)
CC(C)(C)c1ccc(O[C@@H](Cc2ccc3oc(CCc4ccc(F)cc4)nc3c2)C(=O)O)cc1	0.39 (≈ 0.845 µM)
CO/N=C(\C(=O)N[C@@H]1C(=O)N2C(C(=O)O)=C(COC(C)=O)CS[C@H]12)c1csc(N)n1 [CEFOTAXIME]	0.78 (≈ 1.71 µM)
CC(C)(O/N=C(\C(=O)N[C@@H]1C(=O)N2C(C(=O)[O-])=C(C[n+]3ccccc3)CS[C@H]12)c1csc(N)n1)C(=O)O [CEFTAZIDIME]	6.25 (≈ 11.4 µM)
CC1=C(C(=O)O)N2C(=O)[C@@H](NC(=O)[C@H](N)C3=CCC=CC3)[C@H]2SC1 [CEPHRADINE]	50 (≈ 143 µM)
CC1(C)S[C@@H]2[C@H](NC(=O)Cc3ccccc3)C(=O)N2[C@H]1C(=O)[O-].[Na+] [PENICILLIN G SODIUM]	0.195

tested on: Bacillus subtilis; experiment: Potency index, ratio of ceftazidime IC50 to compound IC50 for anti-bacterial activity against Bacillus subtilis ATCC 33712; type: functional; conditions: not given

Compound	Ratio IC50
CC(C)c1ccc(CCc2nc3cc(C[C@H](Oc4ccc(C(C)(C)C)cc4)C(=O)O)ccc3o2)cc1	8 - 510

tested on: Candida albicans; experiment: microbe, parasite or virus in culture; type: functional; conditions: ATCC 10231, 24 h
Description: Anti-fungal activity against Candida albicans ATCC 10231 measured after 24 hrs by microtiter broth dilution method

Compound	MIC [µg/mL]
Cc1oc(-c2ccccc2)nc1CCCc1nc2cc(C[C@H](Oc3ccc(C(C)(C)C)cc3)C(=O)O)ccc2o1	> 200
CC(C)(C)c1ccc(O[C@@H](Cc2ccc3oc(CCc4cn5cc(C(F)(F)F)ccc5n4)nc3c2)C(=O)O)cc1	> 200
CCCCCCCc1nc2cc(C[C@H](Oc3ccc(C(C)(C)C)cc3)C(=O)O)ccc2o1	> 200
Cc1oc(-c2ccccc2)nc1CCc1nc2cc(C[C@H](Oc3ccc(C(C)(C)C)cc3)C(=O)O)ccc2o1	> 200
CC(C)c1ccc(CCc2nc3cc(C[C@H](Oc4ccc(C(C)(C)C)cc4)C(=O)O)ccc3o2)cc1	> 200
CC(C)(C)c1ccc(O[C@@H](Cc2ccc3oc(CCc4ncco4)nc3c2)C(=O)O)cc1	> 200
CC(C)(C)c1ccc(O[C@@H](Cc2ccc3oc(CC4CCOCC4)nc3c2)C(=O)O)cc1	> 200
COc1cc(CCc2nc3cc(C[C@H](Oc4ccc(C(C)(C)C)cc4)C(=O)O)ccc3o2)cc(OC)c1OC	> 200
CC(C)Cc1nc2cc(C[C@H](Oc3ccc(C(C)(C)C)cc3)C(=O)O)ccc2o1	> 200
CC(C)(C)c1ccc(O[C@@H](Cc2ccc3oc(CCc4ccccc4)nc3c2)C(=O)O)cc1	> 200
CC(C)(C)c1ccc(O[C@@H](Cc2ccc3oc(CCc4cc5ccccc5o4)nc3c2)C(=O)O)cc1	> 200
CC(C)(C)c1ccc(O[C@@H](Cc2ccc3oc(CCc4ccc(F)cc4)nc3c2)C(=O)O)cc1	> 200
CC(=O)N1CCN(c2ccc(OCC3COC(Cn4ccnc4)(c4ccc(Cl)cc4Cl)O3)cc2)CC1 (stereo not drawn) [KETOCONAZOLE]	< 0.39
Clc1ccc(COC(Cn2ccnc2)c2ccc(Cl)cc2Cl)c(Cl)c1.O=[N+]([O-])O (stereo not drawn) [MICONAZOLE NITRATE]	1.56
